System: A549 cells
Assay: Transfection of A549 cells with POP:cholesterol vesicles complexed to pCMV-sport-β-gal plasmid (β-galactosidase activity, absorbance 420 nm)
Type: cell-based
Conditions: 50 μM chloroquine added during transfection with POP:cholesterol vesicle-plasmid complexes
Description: Transfection experiments were carried out with the endotoxin free pCMV-sport-β-gal plasmid. 96-well plates were seeded with A549 calls (10,000 cells well^−1, 50,000 cells mL^−1) and incubated overnight with DMEM/F10+10% foetal calf serum (FCS)-Life Sciences, UK in 2% CO2 at 37° C. […] The mixture was incubated for 4 h (2% CO2, 37° C.) after which the media and POP-plasmid complexes were removed and replaced with DMEM/F10+10% FCS (0.2 mL). Cells were fed daily (DMEM/F10+10% FCS) over a 48 h period at the end of which they were lysed by the addition of 0.05 mL triton X-100 buffer (0.1% triton X-100, 0.25M tris hydrochloride, pH=8.0). The cells were then frozen at −70° C. and thawed at room temperature and 0.5% bovine serum albumin in phosphate buffered saline (0.05 mL) added to each well. This was followed by the addition of 0.15 mL ONPG (o-nitrophenyl β-D-galactopyranoside) in buffer (0.06M sodium dibasic phosphate, 0.001M magnesium chloride, 0.01M potassium chloride, 0.05M β-mercaptoethanol, pH=8.0). β-galactosidase activity was estimated by measuring the absorbance (420 nm) on a microtitre plate reader.

CCN(CC)CCCC(C)Nc1ccnc2cc(Cl)ccc12 (stereo not shown) [chloroquine] was tested, and the “Effect on transfection levels” value was “increase transfection levels”.

Reference: US6576254B1, “Polyamino acid vesicles” (University of Strathclyde, priority 1998, dated 2003)
